Measurements taken from EP0308913A2, “2,6-Methanopyrrolo-3-benzazocines, a process and intermediates for their preparation and their use as medicaments” (HOECHST-ROUSSEL PHARMACEUTICALS INCORPORATED, priority 1987, dated 1989).

System: mice
Test: modified phenyl-p-quinone writhing assay in mice (analgesia)
Format: in vivo
Conditions: Mus musculus, sc; male CD-1 mice; test compound s.c. at peak time before phenyl-p-quinone; calculated ED50 by linear regression; read-out: Analgesic Activity (Inhibition of Writhing ED5Ø (mg/kg, s.c.)) (converted)
Experimental: The 2,6-methanopyrrolo-3-benzazocines of this invention are useful as analgetics due to their ability to alleviate pain in mammals. The procedure employed to determine analgetic utility is a modification of the phenyl-p-quinone writhing assay in mice, a standard assay for analgesia [Proc. Soc. Exptl. Bio. Med., 95 729 (1957)]. In the modified procedure phenyl-p-benzoquinone (Eastman, 12.5 mg) is dissolved in 5 ml of 95% ethanol and the solution is diluted to a total volume of 100 ml with distilled water. The solution is administered to the subject mice […] at a dose of 10 ml per kg of body weight. A characteristic "writh", an inward rotation of one or more feet with twisting and turning of the trunk, drawing in of the abdominal wall, lordosis and arching of the back, is produced.
A total of 28 male mice (Charles River, CD-1), weighing 18 to 30 grams, are employed for a time response. The subject animals receive food and water ad libitum. Test compounds are dissolved in distilled water, or suspended in distilled water containing one drop of a suitable surfactant, such as Tween-80.
Four groups of five animals (20 animals) are given the test compound subcutaneously at 15, 30, 45 and 60 minutes prior to administration of the phenyl-p-quinone. Four control groups of 2 animals (8 animals) receive an equal volume of the vehicle. After the administration of the phenyl-p-quinone, the mice are placed separately in one liter beakers, and after five minutes, are observed for ten minutes. The number of writhes for each animal is recorded. The following formula is used to compute the percent inhibition: [formula]
The time period with the greatest percent of inhibition is considered the peak time. A dose range determination is generally reserved for those compounds which inhibit writhing by greater than 65-70% at the screening dose.
A dose range determination is run in the same manner as the time response except 10 animals per group are tested at the peak time of test drug activity. Fifty animals, 4 test drug groups, and a vehicle control are employed. Animals are dosed and tested in a randomized manner. A calculated ED₅₀, i.e., the dose at which 50% inhibition of writhing is produced, is determined by a computer linear regression analysis. The calculated subcutaneous (s.c.) dose effecting an approximately 50% inhibition of writhing (ED₅₀) in mice produced in this assay is as follows: […]

Row | Compound | ED50 [mg/kg]
1 | CC1C2Cc3cc4c(cc3C1(C)CCN2C)NCC4 (stereo not shown) [1,2,3,4,5,6,9,10-Octahydro-3,6,12-trimethyl-2,6-methano-8H-pyrrolo[2,3-i][3]benzazocine] | 35.5
2 | CC1C2Cc3cc4cc[nH]c4cc3C1(C)CCN2C (stereo not shown) [1,2,3,4,5,6-Hexahydro-3,6,12-trimethyl-2,6-methano-8H-pyrrolo[2,3-i][3]benzazocine] | 29.5
3 | CC1C2Cc3c(ccc4[nH]ccc34)C1(C)CCN2C (stereo not shown) [1,2,3,4,5,6-Hexahydro-3,6,12-trimethyl-2,6-methano-9H-pyrrolo[2,3-j][3]benzazocine] | 30.4
4 | CC1C2Cc3c(ccc4c3C(=O)C(=O)N4)C1(C)CCN2C (stereo not shown) [1,2,3,4,5,6-Hexahydro-3,6,12-trimethyl-2,6-methanopyrrolo[2,3-j][3]benzazocine-10,11(9H)-dione] | 24.3
5 | CC1C2Cc3ccc4[nH]ccc4c3C1(C)CCN2C (stereo not shown) [1,2,3,4,5,6-hexahydro-3,6,12-trimethyl-2,6-methano-9H-pyrrolo[3,2-h][3]benzazocine] | 0.6
6 | CC1C2Cc3cc4[nH]ccc4cc3C1(C)CCN2C (stereo not shown) [1,2,3,4,5,6-hexahydro-3,6,12-trimethyl-2,6-methano-10H-pyrrolo[3,2-i][3]benzazocine] | 1.8
7 | CC(C)=CCN1CCC2(C)c3cc(O)ccc3CC1C2C (stereo not shown) [pentazocine, reference compound] | 1.3
